Several values for one entry are separate records, joined by “and”; a condition that tells them apart may be missing. Identical values can stand only once.
How the values were obtained:
[1] = tested on: polychromatic cells (PCEs); assay: PCE count in blood by flow cytometry; type: in vivo, mouse; conditions: MMS 100 μg/g body weight IP at 0 and 48 hours
Protocol: When two dyes are used for simultaneous micronucleus and PCE discrimination, the cell suspension is prepared as follows: The Hoechst 33258 working solution described above is prepared and is filtered through an 0.2 micron Acro-disk (Gilman Sciences). In addition, a propidium iodide (PI) working solution is prepared (5 mg PI/100 ml phosphate buffered saline (PBS)). A buffer-dye solution is then prepared by adding the PI solution (100 μl) and Hoechst 33258 working solution (25 μl) to PBS (867.5 μl). The resulting buffer-dye solution is then dispensed (992.5 μl) into samples tubes. A sample of fixed blood (15 μl) is then added to the corresponding tube. When blood from a malaria (P. berghei) infected mouse was fixed and stained by this procedure, the bivariate pattern shown in FIG. 1B resulted, in which a stronger red fluorescence signal was obtained. In this case, good resolution is achieved if BSA is omitted from the stained cell suspension. The pH of the stained solution is important for good fluorescence emission profiles and resolution of the different cell populations. With Hoechst 33258 and propidium iodide, good results can be obtained in the range from pH 6 to pH 8. Lower or higher pH levels cause a broadening of the fluorescence patterns which adversely affect the resolution of the PCes and micronucleated cells. Operationally,it is advisable to store the fixed samples and analyze freshly stained samples.
Although it is inappropriate to directly compare the number of MNs in the 0 hr and 96 hr samples because of this PCE change, it is possible to normalize the data to take into account said change. An increase in the number of PCEs will cause a decrease in the total number of MNs counted in the PCE window for a 96 hour sample. […]
Another staining embodiment of this invention involves the use of dual parameter data acquisition in conjunction with two dyes, Hoechst 33258 and propidium iodide so as to analyze both MNs and PCEs. […] Propidium iodide endows the PCEs with a strong red fluorescence signal which pulls them out of the RBC contour. […]

[2] = tested on: micronucleated cells in blood; assay: Effects of bleeding on the sensitivity of the micronucleus assay, MMS; type: in vivo, mouse; conditions: for MNs in 96 hr blood, MMS(D): MMS 100 μg/g body wt at 0 and 48 hrs; for Increase in MNs (D - C): MMS minus saline means
Text: Earlier, it was pointed out that obtaining an initial blood sample (t=0) provides an important background measurement of the number of micronucleii in each mouse. Obtaining an initial blood sample also increases the sensitivity of the assay, due to the stimulation of the stem cells to replenish the lost blood. Clastogen action should be increased if cells are actively turning over, rather than subsisting in a quiscent state. In the absence of bleeding, new PCEs are introduced into the blood cells at a low steady state level and MNs are introduced at a spontaneous background level. […] Practioners in the art are unaware of this increase in sensitivity due to initial bleeding. […] In this experiment, control mice were dosed with 0.9% saline, whereas treated mice received MMS (100 μg/g body wt.) at 0 hr and at 48 hrs. The first set of mice (the L series) were not bleed prior to obtaining a 96 hour blood sample. The MN-cell level resulting from MMS treatment would reflect the probability of clastogen action in the steady state stem cell turnover rate. The second set of mice (the M series) were bleed 166 hrs prior to the initial clastogen dose. In this set, the minus 166 hr bleeding will cause stem cell proliferation and differentiation, but the system should begin to return to steady state once the blood is replenished. The third set (the K series) was bleed at t=0hr where upon dosing was initiated, and a final blood sample was obtained at t=96 hrs.
Since the L series was not initially bleed, the initial blood samples were not used in the analysis of the M or K series for equal comparison with L. Rather, only the 96 hour blood samples were analyzed in each set. The difference, D, between the saline controls and the dosed mice should reflect the level of turnover of the stem cells and the suseptibility of said cells to clastogen action in each case. […] Although the M series had 166 hrs to recover from the initial bleeding before being dosed with MMS, the stem cells still appear to be fairly active, and an intermediate level of micronucleated cells was obtained (i.e. 513 events above background). Finally, the highest activity was obtained with the K-series wherein the mice were bleed and immediately dosed. In this case, the stem cells are turning over at a high rate to replenish the blood at a time when the concentration of MMS is also high. […] The results in Tables 2 and 4 provide additional experimental evidence that bleeding stimulates stem cell proliferation and differentiation. […] This increase in sensitivity could be particularly important in cases where a week clastogen is being investigated.

[3] = K Series: initial bleeding at t = 0
[4] = M Series: initial bleeding at -166 hr

COS(C)(=O)=O [MMS, methyl methanesulfonate]
PCEs (96 hr) ([1]; Hoechst 33258 & propidium iodide): 17,684 PCEs per 500,000 cells and 15,408 PCEs per 500,000 cells and 13,095 PCEs per 500,000 cells and 14,356 PCEs per 500,000 cells | PCE Factor (K) (96 hr/0 hr) ([1]; PCEs 96 hr/PCEs 0 hr per 100,000 total cells): 2.49 and 1.36 and 2.07 and 2.22 and 2.12 | MNs in 96 hr blood, MMS(D) [2, 3]: 1829 and 1794 and 1812 | Increase in MNs (D - C) [2, 3]: 777 | MNs in 96 hr blood, MMS(D) ([2]; L Series: no initial bleeding): 1352 and 1390 and 1331 and 1357 ± 30 | Increase in MNs (D - C) ([2]; L Series: no initial bleeding): 314 | MNs in 96 hr blood, MMS(D) [2, 4]: 1776 and 1541 and 1673 and 1663 ± 118 | Increase in MNs (D - C) [2, 4]: 513

From patent publication US5229265A, “Process for analyzing clastogenic agents” (Litron Laboratories, priority 1990, dated 1993)
